Experiment [1] deals with ovariectomized (OVX) Sprague-Dawley rats. The experiment can be described thus: Macroscopic measurements (genital hiatus, vaginal length) after 2 weeks vaginal suppositories. It is filed as in vivo, rat. Particulars: vaginal suppositories 2 weeks (20 μM zinc sulfate, 10 nM GW501516, 0.01% estradiol), mean±SD; for genital hiatus (distance between the external urethral meatus and the mid anus): placebo 12.6±1.1; for vaginal length: placebo 14.1±1.1. Here is the method: (§1) Ten to 12-weeks old female ovariectomized (OVX) Sprague-Dawley rats were utilized for the experiments. The animals were acclimatized to the environmental conditions before starting the experiment. The animals were housed individually and were allowed free access to water and rodent food. […] The suppositories were prepared according to the fusion method, using a polypeg suppository base ([…]., USA). […] Using a microwave, the suppository base was melted in a small beaker for 3 min and then transferred and kept into a water bath at a temperature of 55° C. The proper amount of above reagent was added to the liquefied base and meticulously crushed with a smooth rounded-end glass rod for about 20 min to make the solution to be even and clear. A pipette tip was used to suck some amount of solution and push it into a plastic tube with a diameter of 3.5 mm, and the tube was immediately left on the flat surface of an ice bucket. The suppository turned to white in color when it was solid. The moulded suppository was then pushed out of the tube using a round rod. […] After 30 min of cooling at room temperature, the suppositories were stored at 4° C. in a closed chamber until use. They were left to reach room temperature before use. The day after the last treatment the rats were overnight fasted and then sacrificed. Macroscopic measurement (genital hiatus, vaginal length) were taken and the vagina was dissected out carefully to avoid any injury to the vagina. The mid section of the vagina was utilized for histology (H and E stain, Masson's trichrome stain) and immunofluorescence and the rest of the vagina was used for RNA extraction and RT-PCR.

Experiment [2] concerns rat vaginal Collagen I, Collagen III, Collagen V protein. In words: Immunofluorescence of vaginal collagen protein expression after 2 weeks vaginal suppositories. It is filed as in vivo. Particulars: OVX rats, vaginal suppositories 2 weeks, mean±SD; for ratio of vaginal Collagen I to Collagen III protein expression: placebo 1.16±0.2; for ratio of vaginal Collagen I to Collagen V protein expression: placebo 1.28±0.3. As to the method: as §1, with “RT-PCR. Samples were incubated with three different antibodies, collagen I, III and anti-actin or collagen I and V and anti-actin. Frozen tissues samples were cut into sections of 6 μm and fixed for 10 min with acetone, followed by five washes of phosphate-buffered saline (PBS). […] After that, sections were incubated with the secondary antibody for one hour in the dark, at room temperature, followed by five washes of PBS. […] Alexa Fluor 405 Goat Anti-Mouse IgG (1:400) (Invitrogen); Cy3-AffiniPure Goat Anti-Mouse IgM (1:400) (Jackson ImmunoResearch Laboratories, West Grove, Pa.); Alexa Fluor 647 (1;200) phalloidin (Invitrogen). […] Four images were obtained per section. Images were capture with an Orca II-ERG 12 bitt CCD camera in a Zeiss Apotome microscope with a 20× objective. The data was analyzed using Matamorph version 7.7.4 software. Results are represented as mean pixel intensity ratios per square area.” for “RT-PCR.”

Experiment [3] concerns ovariectomized (OVX) Sprague-Dawley rats. In words: Vaginal histology and histomorphometry after 2 weeks vaginal suppositories. It is filed as in vivo, rat. Particulars: vaginal suppositories 2 weeks; for vaginal epithelial thickness / vaginal muscularis thickness / vaginal lamina propria thickness / vaginal thickness (all three layers of the vagina) / lamina propria collagen fiber compactness: mean±SD; for vaginal epithelial thickness: placebo 57±18; for vaginal muscularis thickness: placebo 121±44; for vaginal lamina propria thickness: placebo 179±71; for vaginal thickness (all three layers of the vagina): placebo 358±86; for vaginal epithelial cornification rate: placebo 0%; for lamina propria collagen fiber compactness: scale 0-5 (0=loose, 5=tight), placebo 4.5±0.6. As to the method:
as §1, with “RT-PCR. […] For each animal, a 4 μm-thick paraffin section was cut and stained with haematoxylineosin and with Masson's trichrome stain for morphological examination. […] The cornification was determined by the presence of a keratin layer on the vaginal epithelium. Measurements of the different vaginal layers were performed on the fifth segment of the vagina, which is approximately halfway between the middle region and the portio vaginalis uteri. […] Images were captured with a color digital camera and quantified using ImageJ software was used. […] The thickness of the lamina propria was obtained by deducting the thickness of the epithelium and muscularis from total vaginal thickness.” for “RT-PCR.”

With `Cc1cc(SCc2sc(-c3ccc(C(F)(F)F)cc3)nc2C)ccc1OCC(=O)O` [GW501516, 2-[2-methyl-4-([4-methyl-2-[4-(trifluoromethyl)phenyl)-1,3-thiazol-5-yl]methylsulfanyl]phenoxy]acetic acid], in experiment [1], the “genital hiatus (distance between the external urethral meatus and the mid anus)” value turned out to be 14.7±1.1 mm; the vaginal length is 15.5±1.0 mm. Further, in experiment [2], the “ratio of vaginal Collagen I to Collagen III protein expression” value came out at 1.20±0.1 relative units and the “ratio of vaginal Collagen I to Collagen V protein expression” value is given as 1.20±0.4 relative units. In experiment [3], the vaginal epithelial thickness is 54±23 μm, the vaginal muscularis thickness was determined as 130±50 μm, the “vaginal lamina propria thickness” value was found to be 192±68 μm and the “vaginal thickness (all three layers of the vagina)” value stood at 377±98 μm. In experiment [3], the “vaginal epithelial cornification rate” value is given as 25% and the “lamina propria collagen fiber compactness” value worked out at 4.0±0.5 relative units.

On to `O.O.O.O.O.O.O.O=S(=O)([O-])[O-].[Zn+2]` [zinc sulfate, zinc sulfate heptahydrate], for which, in experiment [1], the “genital hiatus (distance between the external urethral meatus and the mid anus)” value amounted to 14.5±2.5 mm; the vaginal length was determined as 15.6±4.0 mm. In experiment [2], the “ratio of vaginal Collagen I to Collagen III protein expression” value turned out to be 1.37±0.1 relative units and the “ratio of vaginal Collagen I to Collagen V protein expression” value is on record as 1.50±0.4 relative units. Further, in experiment [3], the vaginal epithelial thickness was determined as 79±21 μm, the vaginal muscularis thickness amounted to 155±58 μm, the “vaginal lamina propria thickness” value came out at 242±78 μm and the “vaginal thickness (all three layers of the vagina)” value was found to be 477±106 μm. For the same compound, in experiment [3], the “vaginal epithelial cornification rate” value is reported as 87% and the “lamina propria collagen fiber compactness” value stood at 3.5±0.5 relative units.

The values above are taken from patent US9375450B2, “Vaginal tissue rejuvenation compositions and methods” (priority 2011, dated 2016).
